# From patent US11339169B2, “P2X3 and/or P2X2/3 compounds and methods” (Asana BioSciences, LLC, priority 2016, dated 2022)
# pIC50: −log10 of the molar value.
# Biological target: T1, hP2X3 (Homo sapiens, UniProt P56373)
# T1 construct: host or cells: HEK (hP2X3-HEK)
# T1 sequence (P56373 1-397): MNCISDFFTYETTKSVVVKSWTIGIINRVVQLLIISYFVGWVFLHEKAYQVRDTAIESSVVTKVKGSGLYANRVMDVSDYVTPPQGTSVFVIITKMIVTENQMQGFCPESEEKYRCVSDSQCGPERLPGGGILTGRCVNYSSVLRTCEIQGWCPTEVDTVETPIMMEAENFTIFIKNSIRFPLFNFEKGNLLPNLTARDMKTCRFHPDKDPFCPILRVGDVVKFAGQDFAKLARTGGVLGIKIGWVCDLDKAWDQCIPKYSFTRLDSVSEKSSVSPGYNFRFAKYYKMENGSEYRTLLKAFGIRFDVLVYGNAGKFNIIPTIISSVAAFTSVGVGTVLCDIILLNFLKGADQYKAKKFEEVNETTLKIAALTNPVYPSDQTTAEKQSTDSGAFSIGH
# Assay: FLIPR intracellular calcium assay, hP2X3
# Format: cell-based
# Conditions: human P2X3-HEK cells, agonist at EC75
# Source text: The FLIPR® assay utilizes cells which express human or rat P2X3 or P2X2/3 receptors. Recombinant cells expressing hP2X3 (Cat #6188) and hP2X2/3 (Cat #6179) were procured from Chantest Corp. Rat P2X2 (NCBI Accession No: U14414) was amplified by PCR from PC12 cDNA (a rat adrenal medulla cell line). The PCR product obtained containing the protein coding sequence of rat P2X2 was cloned into EcoRV-digested and dephosphorylated vector plRES-puro3 within the multiple cloning site (MCS). See, FIG. 1A.
# (i) Intracellular Calcium Assay Protocol for Screening Compounds
# Cryo-vial containing 6×10^6 cells (human P2X3-HEK/human P2X2/3-TRex293/rat P2X2/3-TRex293/rat P2X3 TRex-CHO) was thawed in a 37° C. water bath. Cells were suspended in 20 mL of respective cell plating media (See annexure for composition) in a 50 mL centrifuge tube. The cell viability was checked with the help of Trypan Blue dye. Upon washing, cells were plated in a black 384-well clear bottomed, sterile poly-D-lysine coated plate such that, each well contained 10,000 cells (15,000/well for hP2X3) in 30 μL cell plating media. The plate was incubated in a 5% CO2 incubator at 37° C. for 24 h.
# The next day, prior to the assay, the cell plating media was removed from each well by decanting and gentle tapping. Thirty μL of FLIPR Calcium 4 dye solution was added to each well. The plate was incubated at 37° C. for 45 min (60 min for hP2X3). The plate was next equilibrated at room temperature for 15 minutes before placing it in a 384 well FLIPR for the assay.
# Compounds were dissolved in DMSO and serially diluted following 11 point half log (3.16 fold) dilution with a starting concentration of 2 mM. Dilutions were mixed with assay buffer just before performing the assay.
# Compounds were added to the respective wells of the assay-ready cell plate with the help of the FLIPR and fluorescence readings were captured for 5 min to observe any possible agonistic property of the compounds. The plate was then incubated at room temperature for 15 min. The cells were stimulated with respective agonist EC75 concentration and the fluorescence readings were captured for another 5 min by FLIPR. The difference in fluorescence readings in presence of the compounds were compared with that of the control wells (wells having no compound) to calculate the inhibitory potency of the compounds. The IC50 values of the compounds were determined using the Graph pad Prism software.
# (ii) Cell Plating Media for hP2X3-HEK and hP2X2/3-TRex293 Cells • DMEM/F12 (1:1) HAM media (Invitrogen; Cat #11039) • 1×NEAA (Invitrogen; Cat #11140) • 25 mM HEPES (Invitrogen; Cat #15630) • 1 mM sodium pyruvate (Invitrogen; Cat #11360) • 10% tetracycline negative FBS (PAA; Cat #A15-209) • 1 μg/mL doxycycline (Clontech; Cat #63131) [for hP2X2/3-TRex293 cells only]
# (v) Assay Buffer Composition • HBSS (Invitrogen Cat #14025) • 20 mM HEPES (Invitrogen Cat #15630) • 0.01% F127 (Sigma Cat #P2443) • 1.8 mM CaCl2 (Sigma Cat #C5080) • pH adjusted to 7.4
# (vi) Dye Solution Composition • 1× FLIPR Calcium 4 dye in assay buffer (Molecular devices Cat #R8141) • 1.8 mM Probenecid (Sigma Cat #P8761) • pH adjusted to 7.4
row,pIC50,Compound
1,6.00 to 7.00,CCC(C)n1ncc2nc(N3CCN(C(C)=O)CC3)nc(NC(C)c3ccc(-c4ccccn4)cc3)c21 (stereo not drawn) [Example 53]
2,7.00 to 9.00,CCC(CC)n1cc2nc(N3CCN(C(C)=O)CC3)nc(N[C@H](C)c3cnc4ccccc4c3)c2n1 [Example 8]
3,6.00 to 7.00,CCC(CC)n1ncc2nc(N3CCN(C(C)=O)CC3)nc(N[C@@H](C)c3cnc4ccc(F)cc4c3)c21 [Example 54]
4,6.00 to 7.00,CCn1ncc2nc(N3CCN(C(C)=O)CC3)nc(N[C@H](C)c3cnc4ccccc4c3)c21 [Example 50]
5,6.00 to 7.00,CC(=O)N1CCN(c2nc(N[C@H](C)c3cnc4ccccc4c3)c3c(cnn3CC3CCOCC3)n2)CC1 [Example 26]
6,6.00 to 7.00,CC[C@H](C)n1ncc2nc(N3CCN(C(N)=O)CC3)nc(NC(C)c3cc4ccccn4n3)c21 (stereo partly drawn) [Example 73]
7,6.00 to 7.00,CC[C@H](C)n1ncc2nc(N3CCN(C(N)=O)CC3)nc(NC(C)c3n[nH]c4ccccc34)c21 (stereo partly drawn) [Example 71]
8,6.00 to 7.00,"4-{1-sec-Butyl-7-[((R)-cyclopropyl-quinolin-3-yl-methyl)-amino]-1H-pyrazolo[4,3-d]pyrimidin-5-yl}-piperazine-1-sulfonic Acid Amide [Example 109]"
9,7.00 to 9.00,CC(=O)N1CCN(c2nc(N[C@H](C)c3cnc4ccccc4c3)c3nn(C(C)C)c(C4CC4)c3n2)CC1 [Example 107]
10,6.00 to 7.00,CC(C)n1ncc2nc(N3CCNC(=O)C3)nc(N[C@H](C)c3cnc4ccccc4c3)c21 [Example 41]
11,6.00 to 7.00,CCC(C)n1ncc2nc(N3CCN(C)C(=O)C3)nc(N[C@H](C)c3cnc4ccccc4c3)c21 (stereo partly drawn) [Example 20]
12,6.00 to 7.00,CC(=O)N1CCN(c2nc(NC(C)c3cnc4ccccc4c3)c3nn(C(C)C)cc3n2)CC1 (stereo not drawn) [Example 2]
13,7.00 to 9.00,CC(=O)N1CCN(c2nc(N[C@H](C)c3cnc4ccccc4c3)c3c(cnn3C3CCOCC3)n2)CC1 [Example 27]
14,6.00 to 7.00,CCCCCCn1ncc2nc(N3CCN(C(C)=O)CC3)nc(N[C@H](C)c3cnc4ccccc4c3)c21 [Example 28]
15,6.00 to 7.00,CCC(CC)n1ncc2nc(N3CCN(C(C)=O)CC3)nc(N[C@@H](CC)c3cnc4ccccc4c3)c21 [Example 36]
16,6.00 to 7.00,CC(=O)N1CCN(c2nc(N[C@@H](C)c3cnc4ccccc4c3)c3c(cnn3C(C)C)n2)CC1 [Example 17]
17,7.00 to 9.00,CCC(=O)N1CCN(c2nc(N[C@H](C)c3cnc4ccccc4c3)c3c(cnn3C(C)C)n2)CC1 [Example 37]
18,6.00 to 7.00,CC[C@H](C)n1ncc2nc(N3CCN(C(N)=O)CC3)nc(NC(c3ccc4nccn4c3)C3CC3)c21 (stereo partly drawn) [Example 67]
19,6.00 to 7.00,CCC(C)n1ncc2nc(-c3cnn(CC(N)=O)c3)nc(N[C@@H](c3cnc4ccccc4c3)C3CC3)c21 (stereo partly drawn) [Example 120]
20,6.00 to 7.00,CCC(CC)n1ncc2nc(N3CCN(C(C)=O)CC3)nc(NC(c3ccc(OCC4CC4)nc3)C3CC3)c21 (stereo not drawn) [Example 63]
21,6.00 to 7.00,"CCC(C)n1ncc2nc(-n3cnnn3)nc(N[C@@H](c3cnc4ccccc4c3)C3CC3)c21 (single isomer, unassigned) [Example 78]"
22,6.00 to 7.00,"CC(=O)N1CCN(c2nc(N[C@H](C)c3cnc4ccccc4c3)c3nn(-c4ccccc4)cc3n2)CC1 [Example 9, 1-{4-[2-Phenyl-7-((R)-1-quinolin-3-yl-ethylamino)-2H-pyrazolo[4,3-d]pyrimidin-5-yl]-piperazin-1-yl} ethanone]"
23,6.00 to 7.00,CC(=O)N1CCN(c2nc(NC(C)c3cnc4ccccc4c3)c3nn(C(C)C)c(C(N)=O)c3n2)CC1 (stereo not drawn) [Example 95]
24,7.00 to 9.00,CC(=O)N1CCN(c2nc(NC(C)(C)Cc3ccc(Cl)cc3)c3nn(C(C)C)c(Br)c3n2)CC1 [Example 97]
